Test results as given in patent US20080161232A1, “C5a Receptor Antagonist” (JERINI AG, priority 2005, published 2008).
Non-standard residues stand in square brackets, D forms with d. Residues, ends and D or L forms follow the SMILES beside them. Bta = N[C@@H](Cc1csc2ccccc12)C(=O)O; d(hLeu) = CC(C)CC[C@@H](N)C(=O)O; Orn = NCCC[C@H](N)C(=O)O

Experiments:
human C5aR(CD88) [1] = biological target: T1, human C5aR(CD88) (Homo sapiens, UniProt P21730); experiment: Determination of the IC50 value in an enzyme release assay (functional assay, antagonistic activity); format: cell-based
T1 construct: expressed in transfected cells; host or cells: rat basophilic leukemia cells (RBL)
T1 sequence (P21730 1-350): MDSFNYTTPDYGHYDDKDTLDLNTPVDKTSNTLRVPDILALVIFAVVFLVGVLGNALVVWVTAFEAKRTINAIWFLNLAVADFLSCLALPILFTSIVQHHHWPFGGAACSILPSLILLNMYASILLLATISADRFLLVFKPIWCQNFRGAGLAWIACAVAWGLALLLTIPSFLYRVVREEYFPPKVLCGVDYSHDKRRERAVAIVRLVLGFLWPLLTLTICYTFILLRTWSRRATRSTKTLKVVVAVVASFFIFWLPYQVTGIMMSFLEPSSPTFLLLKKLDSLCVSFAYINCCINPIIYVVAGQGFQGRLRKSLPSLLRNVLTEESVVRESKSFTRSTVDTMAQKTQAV

human C5aR(CD88) [2] = biological target: T1, human C5aR(CD88); experiment: Determination of EC50-values in an enzyme release assay (agonistic activity); format: cell-based; conditions: cellular assay, up to a concentration of at least 1430 nM
Method: The assay procedure was described by Kohl (Kohl 1997 The Anaphylatoxins. In: Dodds, A. W., Sim, R. B. (Eds.), Complement: A Practical Approach. Oxford, pp. 135-163). Basophilic leukemia cells from rats (RBL), which express the human C5aR(CD88), were cultivated in DMEM with 10% fetal bovine serum, 100 U/ml penicillin, 100 μg/ml streptomycin and 2 mM glutamine (all components of the media from Biochrome, Berlin) to confluence at 37° C. and 10% CO2. The following specifications refer to single cell culture flask having a surface of 75 cm^2. Medium was decanted from cells. Cells were washed with 10 ml PBS (Dulbecco's PBS, Biochrome) and subsequently overlayed with 3 ml Cell Dissociation Solution (CDS, Sigma). Cells were incubated for 1 min at room temperature. Subsequently, CDS was removed and the cells were further incubated for 10-15 min at 37° C. for dissociation. In the assay, 20 μl of the solution containing the compound to be tested were used. This solution should not contain more than 2.8% DMSO. For the dilution process, the compounds were diluted in ⅓ or ½ steps. To 20 μl compound solution 75 μl of the RBL-cells were added, which were treated as follows: after dissociation cells were detached and warmed at 37° C. in 10 ml HAG-CM (20 mM HEPES; 125 mM NaCl, 5 mM KCl, 1 mM CaCl2, 1 mM MgCl2, 0,5 mM Glucose, 0,25% BSA. HEPES-preparation: 2.3 g/l HEPES-salt +2.66 g/l HEPES acid). Cells were counted and centrifuged (200×g, 10 min). The cell pellet was resuspended in preheated HAG-CM (i.e. Hepes-buffer NaCl-glucose-solution with calcium and magnesium), and the cell density was adjusted to 2×10^6 cells/ml. The cells were incubated at 37° C. for 5 min. Per ml cell suspension 27 μl of a cytochalasin B-solution were added (100 μg/ml in DMSO, Sigma). The cells were incubated for further 3 min at 37° C. 75 μl of the cell suspension were added to 20 μl compound solution leading to a volume of 95 μl per well. After incubation of the cells for 10 min at 37° C. 10 μl hrC5a (10.5 nM in HAG-CM, Sigma) per well were added. The cells were incubated for additional 5 min at 37° C. The mtp was then transferred to ice and centrifuged for 3 min at 4° C. with 1200×g. 75 μl of the supernatant were added to 100 μl substrate-solution (2.7 mg/ml p-nitrophenyl-N-acetyl-β-D-glucosaminide (Sigma) in 42.5 mM Na-acetate pH 4.5). The mtp was incubated for further 60 min at 37° C. 75 μl 0.4 M glycine pH 10.4 were added per well. The mtp was transferred into a reader and the absorption at 405 nm was measured. IC50-values were obtained following the equation; y=((A-D)/(1+(x/C)^B))+D.
Determination of EC50-Values in an Enzyme Release Assay
The determination of EC50-values was performed according to the procedure given in example II, with the exception that 30 μl of the test compound need to be mixed with 75 μl of the cell suspension mentioned in example 11. Neither preincubation nor addition of C5a for stimulation of enzyme release is needed.

BALB/c mice = experiment: Model of immune complex mediated peritonitis (reverse passive Arthus reaction); format: in vivo; conditions: 1 mg/kg i.v. 15 min before Arthus reaction, lavage after 6 h, FIG. 1
Source text: Efficacy of compound 149 in a model of immune complex mediated peritonitis
Immune complex mediated peritonitis resembles the pathological conditions of immune complex related diseases like vasculitis, nephritis, arthritis, and farmer's disease. The associated animal model was described by Heller et al. (1999 Journal of Immunology 163: 985-994) and takes advantage of the pro-inflammatory effects of immune complexes formed after i.v. administration of the antigen and i.p. administration of the antibody.
BALB/c mice (6-8 weeks old) were treated i.v. with compound 149 (1 mg/kg bodyweight in 200 μl vehicle) 15 min before the initiation of the reverse passive Arthus reaction. Arthus reaction was induced through the administration of OVA (20 mg/kg i.v. in 200 μl PBS) and polyclonal anti-OVA Ab (rabbit; 800 μg/Maus i.p). After 6 h a peritoenal lavage with 2 ml PBS 0.1% BSA was done. The collected PE-cells were stained with DIFF-Quick. At least 20 visual fields (100× magnification) were analyzed for the presence of neutrophils.

Wistar rats = experiment: Model of C5a induced neutropenia; format: in vivo; conditions: i.v. infusion 10 min before 2 μg/kg hr C5a i.v., FIG. 2
Source text: Efficacy of compound 149 in a model of C5a induced neutropenia
C5a induced neutropenia is a model for shock induced diseases (e.g. septic shock), where the systemic role of C5a (neutropenia, blood pressure decrease) plays an important role. The reason for the decrease of the neutrophils in the circulation is their binding to the vessel walls due to the C5a stimulus. These processes of neutrophil recruitment are playing an important role in many other diseases like reperfusion injury. This model was also described by Short et al. (1999 British Journal of Pharmacology 125: 551-554).
Female Wistar rats were treated i.p. with ketamine (80 mg/kg) and xylazine (12 mg/kg). A catheter was introduced in the jugular vein and the animals were subjected to the following procedure:
1. Rats were treated with vehicle or compounds according to the invention like compound 149 via i.v. infusion. A blood sample was taken one minute before compound treatment. 2. 10 min after compound infusion rats were treated with 2 μg/kg hr C5a i.v. (2 μg/kg over 1 min). […]
White blood cell count was measured with a haematology-cell-counter. […]
The differential cell count was determined as the sum of neutrophils, eosinophils, basophils, lymphocytes and monocytes of 100 cells. Then the percentage of the neutrophils in relation to all white blood cells was calculated.

CC(=O)N[C@@H](Cc1ccccc1)C(=O)N[C@@H](CCCN)C(=O)N1CCC[C@H]1C(=O)N[C@H](CCC(C)C)C(=O)N[C@@H](Cc1csc2ccccc12)C(=O)N[C@@H](Cc1ccccc1)C(N)=O [Compound 149, Ac-Phe-Orn-Pro-hle-Bta-Phe-NH2] (Ac-F[Orn]P[d(hLeu)][Bta]F-NH2)
IC50 (human C5aR(CD88) [1]; antagonistic activity, IC50 group in enzyme release assay, RBL cells expressing human C5aR(CD88), read-out: activity (group)): 10 to 20 nM
inhibitory activity (in words) (human C5aR(CD88) [1]; functional assay of example 11, noteworthy = IC50 less than 200 nM): noteworthy inhibitory activity
agonistic activity (in words) (human C5aR(CD88) [2]): pure antagonists
influx of neutrophils / pro-inflammatory cells into the peritoneum (BALB/c mice): reduction of the influx of pro-inflammatory cells into the peritoneum
C5a-induced neutropenia (percentage of neutrophils over time) (Wistar rats): reduces the C5a-induced neutropenia remarkable
